Reference: patent publication US4923963A, “Bradykinin antagonist peptides” (Nova Technology Limited Partnership, priority 1987, dated 1990)
Where two headings read alike, the source gives them in different places. Square brackets hold non-standard residues; d marks the D form. Peptide text beside a SMILES is read from it. dPhe(4-Cl) = N[C@H](Cc1ccc(Cl)cc1)C(=O)O; dPhe(4-F) = N[C@H](Cc1ccc(F)cc1)C(=O)O; d2Nal = N[C@H](Cc1ccc2ccccc2c1)C(=O)O; Hyp = O=C(O)[C@@H]1C[C@@H](O)CN1; 2Thi = N[C@@H](Cc1cccs1)C(=O)O; d2Thi = N[C@H](Cc1cccs1)C(=O)O

Tests used:
isolated rat uterus = format: cell-based; details: for pA2 /RUT: activity class: not quantitated
Description: (§1) The bradykinin antagonists were assayed on isolated rat uterus in natural or induced estrus and on guinea pig ileum, according to the commonly accepted assay methods for bradykinin and related kinins as described by Trautschold (Handbook of Expt. Pharmacol. Vol 25, Springer Verlag, pp. 53-55, 1970) for inhibition of the myotropic activity of bradykinin. The inhibition potencies, as determined according to the commonly accepted manner described by Schild for antagonists of biologically active compounds (Br. J. Pharmacol. 2:189, 1947), and expressed as pA2 values are determined on isolated rat uterus (RUT) and isolated guinea pig ileum (GPI). In the assays, a dose-response curve is determined for the reference substance bradykinin. The dose of bradykinin which produced a half maximal contraction of tissue is the ED50 dose. An amount of bradykinin equivalent to twice the ED50 dose is administered to the tissue 30 seconds after the start of incubation of the tissue with a dose of antagonist. Doses of antagonist are increased in this protocol until pre-incubation with a dose of antagonist reduces the contraction in response to the double ED50 dose of bradykinin to response of a single ED50 dose of bradykinin. The pA2 value represents the negative logarithm of the molar concentration of antagonist necessary to reduce the response of a double ED50 dose of bradykinin to that of an ED50 dose. One unit of pA2 value represents an order of magnitude change in potency. For comparison, the negative log of the dose of BK, the dose which causes half maximal contraction of the tissues, is commonly known as the pD2 value. The pD2 value for bradykinin is 7.9 on the rat uterus and 7.4 on the guinea pig ileum.

[1] = system: isolated guinea pig ileum; format: cell-based; design: pA2 /GPI: activity class: scale not given here; details: isolated guinea pig ileum; for pA2 /GPI: activity class: not quantitated
Description: as §1

rat blood pressure = assay: effects on blood pressure in the anesthetized rat (RBP), intraaortic and intravenous bolus; format: in vivo; design: RBP-IA: activity class / RBP-IV: activity class: scale not given here
Description: The in vivo effects of bradykinin antagonists on blood pressure in the anesthetized rat are determined according to the assay described by Roblero, Ryan and Stewart (Res. Commun. Pathol. Pharmacol. 6:207, 1973). The antagonists also produce inhibition of the bradykinin response when injected as a bolus admixture of bradykinin plus antagonist by either the ia or iv route of administration.

[2] = rat blood pressure, intraaortic bolus
[3] = rat blood pressure, intravenous bolus

## CC[C@H](C)[C@H](NC(=O)[C@H](CCCNC(=N)N)NC(=O)[C@H](Cc1cccs1)NC(=O)[C@@H](Cc1ccccc1)NC(=O)[C@H](CO)NC(=O)[C@H](Cc1cccs1)NC(=O)CNC(=O)[C@@H]1CCCN1C(=O)[C@@H]1CCCN1C(=O)[C@H](CCCNC(=N)N)NC(=O)[C@H](N)CCCNC(=N)N)C(=O)N[C@@H](Cc1ccc(O)cc1)C(=O)O [Example 66, DArg-Arg-Pro-Pro-Gly-Thi-Ser-DPhe-Thi-Arg-Ile-Tyr] (H-[dR]RPPG[2Thi]S[dF][2Thi]RIY-OH)
Isolated rat uterus
  pA2 /RUT: agonist potency as percent of BK potency: 0.3%
[1]; number of tissues in parentheses
  pA2 /GPI (antagonist potency): 5.8

## N=C(N)NCCC[C@@H](N)C(=O)N[C@H](Cc1ccc(Cl)cc1)C(=O)N1CCC[C@H]1C(=O)N1C[C@H](O)C[C@H]1C(=O)NCC(=O)N[C@@H](Cc1ccccc1)C(=O)N[C@@H](CO)C(=O)N[C@H](Cc1ccccc1)C(=O)N[C@@H](Cc1ccccc1)C(=O)N[C@@H](CCCNC(=N)N)C(=O)O [Example 5, DArg-CDF-Pro-Hyp-Gly-Phe-Ser-DPhe-Phe-Arg] (H-[dR][dPhe(4-Cl)]P[Hyp]GFS[dF]FR-OH)
Isolated rat uterus; isolated rat uterus, number of tissues in parentheses
  pA2 /RUT (antagonist potency): 5.8
[1]
  pA2 /GPI: activity class: 0

## N=C(N)NCCC[C@H](NC(=O)[C@H](Cc1ccccc1)NC(=O)[C@@H](Cc1cccs1)NC(=O)[C@H](CO)NC(=O)[C@H](Cc1ccccc1)NC(=O)CNC(=O)[C@@H]1CCCN1C(=O)[C@@H]1CCCN1C(=O)[C@H](N)Cc1ccc2ccccc2c1)C(=O)O [Example 37, DNal-Pro-Pro-Gly-Phe-Ser-DThi-Phe-Arg] (H-[d2Nal]PPGFS[d2Thi]FR-OH)
Isolated rat uterus; isolated rat uterus
  pA2 /RUT: activity class: 0
[1]
  pA2 /GPI: activity class: 0

## N=C(N)NCCC[C@@H](N)C(=O)N[C@H](Cc1ccc2ccccc2c1)C(=O)N1CCC[C@H]1C(=O)N1CCC[C@H]1C(=O)NCC(=O)N[C@@H](Cc1ccccc1)C(=O)N[C@@H](CO)C(=O)N[C@H](Cc1ccccc1)C(=O)N[C@@H](Cc1ccccc1)C(=O)N[C@@H](CCCNC(=N)N)C(=O)O [Example 31, DArg-DNal-Pro-Pro-Gly-Phe-Ser-DPhe-Phe-Arg] (H-[dR][d2Nal]PPGFS[dF]FR-OH)
Isolated rat uterus
  pA2 /RUT (antagonist potency): 5.6
[1]
  pA2 /GPI: activity class: 0

## CC(=O)N[C@@H](CCCNC(=N)N)C(=O)N1CCC[C@H]1C(=O)N1CCC[C@H]1C(=O)NCC(=O)N[C@@H](Cc1cccs1)C(=O)N[C@@H](CO)C(=O)N[C@H](Cc1ccccc1)C(=O)N[C@@H](Cc1cccs1)C(=O)N[C@H](CCCNC(=N)N)C(N)=O [Example 56, Ac-Arg-Pro-Pro-Gly-Thi-Ser-DPhe-Thi-DArg-NH2] (Ac-RPPG[2Thi]S[dF][2Thi][dR]-NH2)
Isolated rat uterus; isolated rat uterus
  pA2 /RUT: activity class: 0
[1]
  pA2 /GPI: activity class: 0

## N=C(N)NCCC[C@H](NC(=O)[C@H](Cc1cccs1)NC(=O)[C@@H](Cc1ccccc1)NC(=O)[C@H](CO)NC(=O)[C@H](Cc1cccs1)NC(=O)CNC(=O)[C@@H]1C[C@@H](O)CN1C(=O)[C@@H]1C[C@@H](O)CN1C(=O)[C@@H](Cc1ccc2ccccc2c1)NC(=O)[C@H](CCCCN)NC(=O)[C@@H](N)CCCCN)C(=O)O [Example 28, Lys-Lys-DNal-Hyp-Hyp-Gly-Thi-Ser-DPhe-Thi-Arg] (H-KK[d2Nal][Hyp][Hyp]G[2Thi]S[dF][2Thi]R-OH)
Isolated rat uterus; isolated rat uterus
  pA2 /RUT: activity class: 0
[1]
  pA2 /GPI: activity class: 0

## N=C(N)NCCC[C@H](NC(=O)[C@H](Cc1ccccc1)NC(=O)[C@@H](Cc1cccs1)NC(=O)[C@H](CO)NC(=O)[C@H](Cc1ccccc1)NC(=O)CNC(=O)[C@@H]1CCCN1C(=O)[C@@H]1CCCN1C(=O)[C@H](N)Cc1ccc(Cl)cc1)C(=O)O [Example 6, CDF-Pro-Pro-Gly-Phe-Ser-DThi-Phe-Arg] (H-[dPhe(4-Cl)]PPGFS[d2Thi]FR-OH)
[1]
  pA2 /GPI: activity class: 0
Rat blood pressure; [2]
  RBP-IA: activity class: 0
Rat blood pressure; [3]
  RBP-IV: activity class: 0

## CC[C@@H](C)[C@@H](NC(=O)[C@H](N)CCCNC(=N)N)C(=O)N1CCC[C@H]1C(=O)N1C[C@H](O)C[C@H]1C(=O)NCC(=O)N[C@@H](Cc1ccccc1)C(=O)N[C@@H](CO)C(=O)N[C@H](Cc1ccccc1)C(=O)N[C@@H](Cc1ccccc1)C(=O)N[C@@H](CCCNC(=N)N)C(=O)O [Example 18, DArg-DIle-Pro-Hyp-Gly-Phe-Ser-DPhe-Phe-Arg] (H-[dR][dI]P[Hyp]GFS[dF]FR-OH)
[1]
  pA2 /GPI: activity class: 0
Rat blood pressure; [2]
  RBP-IA: activity class: 0
Rat blood pressure; [3]
  RBP-IV: activity class: 0

## CC[C@@H](C)[C@@H](N)C(=O)N1CCC[C@H]1C(=O)N1C[C@H](O)C[C@H]1C(=O)NCC(=O)N[C@@H](Cc1ccccc1)C(=O)N[C@@H](CO)C(=O)N[C@H](Cc1ccccc1)C(=O)N[C@@H](Cc1ccccc1)C(=O)N[C@@H](CCCNC(=N)N)C(=O)O [Example 17, DIle-Pro-Hyp-Gly-Phe-Ser-DPhe-Phe-Arg] (H-[dI]P[Hyp]GFS[dF]FR-OH)
[1]
  pA2 /GPI: activity class: 0
Rat blood pressure; [2]
  RBP-IA: activity class: 0
Rat blood pressure; [3]
  RBP-IV: activity class: 0

## N=C(N)NCCC[C@H](NC(=O)[C@H](Cc1ccccc1)NC(=O)[C@@H](Cc1ccccc1)NC(=O)[C@H](CO)NC(=O)[C@H](Cc1ccccc1)NC(=O)CNC(=O)[C@@H]1C[C@@H](O)CN1C(=O)[C@@H]1CCCN1C(=O)[C@H](N)Cc1ccc(F)cc1)C(=O)O [Example 11, FDF-Pro-Hyp-Gly-Phe-Ser-DPhe-Phe-Arg] (H-[dPhe(4-F)]P[Hyp]GFS[dF]FR-OH)
[1]
  pA2 /GPI: activity class: 0

## N=C(N)NCCC[C@H](NC(=O)[C@H](Cc1cccs1)NC(=O)[C@@H](Cc1ccccc1)NC(=O)[C@H](CO)NC(=O)[C@H](Cc1cccs1)NC(=O)CNC(=O)[C@@H]1CCCN1C(=O)[C@@H]1CCCN1C(=O)[C@@H](Cc1ccc2ccccc2c1)NC(=O)[C@H](CCCCN)NC(=O)[C@@H](N)CCCCN)C(=O)O [Example 24, Lys-Lys-DNal-Pro-Pro-Gly-Thi-Ser-DPhe-Thi-Arg] (H-KK[d2Nal]PPG[2Thi]S[dF][2Thi]R-OH)
[1]
  pA2 /GPI: activity class: 0

## N=C(N)NCCC[C@H](NC(=O)[C@H](Cc1cccs1)NC(=O)[C@@H](Cc1ccccc1)NC(=O)[C@H](CO)NC(=O)[C@H](Cc1cccs1)NC(=O)CNC(=O)[C@@H]1CCCN1C(=O)[C@@H]1CCCN1C(=O)[C@@H](N)CCCNC(=N)N)C(N)=O [Example 51, Arg-Pro-Pro-Gly-Thi-Ser-DPhe-Thi-Arg-NH2] (H-RPPG[2Thi]S[dF][2Thi]R-NH2)
Isolated rat uterus
  pA2 /RUT: agonist potency as percent of BK potency: 0.02%
Rat blood pressure; rat, in vivo
  % DESTR (metabolic breakdown of BK-like agonists in RBP assay): 52%
  RBP-IA: agonist potency as percent of BK potency: 0.05%
Rat blood pressure; rat, in vivo, iv
  RBP-IV: agonist potency as percent of BK potency: 2%

## CC[C@H](C)[C@H](NC(=O)[C@H](CCCNC(=N)N)NC(=O)[C@H](Cc1ccccc1)NC(=O)[C@@H](Cc1ccccc1)NC(=O)[C@H](CO)NC(=O)[C@H](Cc1ccccc1)NC(=O)CNC(=O)[C@@H]1CCCN1C(=O)[C@@H]1CCCN1C(=O)[C@@H](N)CCCNC(=N)N)C(=O)N[C@@H](Cc1ccc(O)cc1)C(=O)O [Example 63, Arg-Pro-Pro-Gly-Phe-Ser-DPhe-Phe-Arg-Ile-Tyr] (H-RPPGFS[dF]FRIY-OH)
Isolated rat uterus; isolated rat uterus
  pA2 /RUT: agonist potency as percent of BK potency: 0.6%
Rat blood pressure; [2]
  RBP-IA: agonist potency as percent of BK potency: 0.2%
Rat blood pressure; [3]
  RBP-IV: agonist potency as percent of BK potency: 2%
Rat blood pressure; relative to BK = 100%
  % DESTR (metabolic breakdown of BK-like agonists in RBP assay): 70%

## CC(C)[C@@H](NC(=O)[C@H](N)CCCNC(=N)N)C(=O)N1CCC[C@H]1C(=O)N1C[C@H](O)C[C@H]1C(=O)NCC(=O)N[C@@H](Cc1ccccc1)C(=O)N[C@@H](CO)C(=O)N[C@H](Cc1ccccc1)C(=O)N[C@@H](Cc1ccccc1)C(=O)N[C@@H](CCCNC(=N)N)C(=O)O [Example 16, DArg-DVal-Pro-Hyp-Gly-Phe-Ser-DPhe-Phe-Arg] (H-[dR][dV]P[Hyp]GFS[dF]FR-OH)
[1]
  pA2 /GPI: activity class: 0
Rat blood pressure; [2]
  RBP-IA: activity class: 0
Rat blood pressure; [3]
  RBP-IV: activity class: 0

## N=C(N)NCCC[C@H](NC(=O)[C@H](Cc1ccccc1)NC(=O)[C@@H](Cc1ccccc1)NC(=O)[C@H](CO)NC(=O)[C@H](Cc1ccccc1)NC(=O)CNC(=O)[C@@H]1C[C@@H](O)CN1C(=O)[C@@H]1CCCN1C(=O)[C@H](N)Cc1ccc(Cl)cc1)C(=O)O [Example 3, CDF-Pro-Hyp-Gly-Phe-Ser-DPhe-Phe-Arg] (H-[dPhe(4-Cl)]P[Hyp]GFS[dF]FR-OH)
[1]
  pA2 /GPI: activity class: 0

## N=C(N)NCCC[C@@H](N)C(=O)N[C@H](Cc1cccs1)C(=O)N1CCC[C@H]1C(=O)N1C[C@H](O)C[C@H]1C(=O)NCC(=O)N[C@@H](Cc1ccccc1)C(=O)N[C@@H](CO)C(=O)N[C@H](Cc1cccs1)C(=O)N[C@@H](Cc1ccccc1)C(=O)N[C@@H](CCCNC(=N)N)C(=O)O [Example 36, DArg-DThi-Pro-Hyp-Gly-Phe-Ser-DThi-Phe-Arg] (H-[dR][d2Thi]P[Hyp]GFS[d2Thi]FR-OH)
[1]
  pA2 /GPI: activity class: 0

## N=C(N)NCCC[C@H](NC(=O)[C@H](Cc1ccccc1)NC(=O)[C@@H](Cc1ccccc1)NC(=O)[C@H](CO)NC(=O)[C@H](Cc1ccccc1)NC(=O)CNC(=O)[C@@H]1C[C@@H](O)CN1C(=O)[C@@H]1CCCN1C(=O)[C@H](N)Cc1ccc(O)cc1)C(=O)O [Example 9, DTyr-Pro-Hyp-Gly-Phe-Ser-DPhe-Phe-Arg] (H-[dY]P[Hyp]GFS[dF]FR-OH)
[1]
  pA2 /GPI: activity class: 0
